Source: patent publication US20220119354A1, “DIAMINO-SUBSTITUTED PYRIDINES AND PYRIMIDINES AS HERBICIDES” (FMC Corporation, priority 2019, published 2022)

What was measured:
Type in all cases: in vivo
[1] = tested on: sedge, umbrella (small-flower umbrella sedge, Cyperus difformis); assay: Test B flooded paddy test, umbrella sedge; conditions: Flood, 250 g ai/ha, applied to paddy water, 2-leaf stage, visual evaluation after 13 to 15 d
Method in brief: (§1)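 Pots flooded to 3 cm above the soil when treated, with test compound added straight to the water and the flood maintained. Treated plants were at the 2-leaf stage and stayed 13–15 d in greenhouse. Response versus untreated controls scored visually from 0 (no effect) to 100 (complete control).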

[2] = tested on: ducksalad (Heteranthera limosa); assay: Test B flooded paddy test, ducksalad; conditions: Flood, 250 g ai/ha, applied to paddy water, 2-leaf stage, visual evaluation after 13 to 15 d
Method in brief: as §1

[3] = tested on: pigweed (Amaranthus retroflexus); assay: Test A preemergence, pigweed; conditions: 0 to 100 scale, 0 is no effect, 100 is complete control
Method in brief: (§2)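 Greenhouse pot test, loam/sand soil. Pre: directed soil spray at planting; post: foliar spray at 1–2 leaf stage (2–10 cm). Chemical in non-phytotoxic solvent + surfactant. Visual rating ~10 d, 0 = no effect, 100 = complete control.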

[4] = tested on: ragweed (common ragweed, Ambrosia elatior); assay: Test A postemergence, ragweed; conditions: 0 to 100 scale, 0 no effect, 100 complete control
Method in brief: as §2

[5] = tested on: barnyardgrass (Echinochloa crus-galli); assay: Test A postemergence, barnyardgrass; conditions: 0 to 100 scale, 0 no effect, 100 complete control
Method in brief: as §2

[6] = tested on: barnyardgrass (Echinochloa crus-galli); assay: Test A preemergence, barnyardgrass; conditions: 0 to 100 scale, 0 is no effect, 100 is complete control
Method in brief: as §2

[7] = tested on: ragweed (common ragweed, Ambrosia elatior); assay: Test A preemergence, ragweed; conditions: 0 to 100 scale, 0 is no effect, 100 is complete control
Method in brief: as §2

[8] = tested on: pigweed (Amaranthus retroflexus); assay: Test A postemergence, pigweed; conditions: 0 to 100 scale, 0 no effect, 100 complete control
Method in brief: as §2

[9] = tested on: barnyardgrass (Echinochloa crus-galli); assay: Test B flooded paddy test, barnyardgrass; conditions: Flood, 250 g ai/ha, applied to paddy water, 2-leaf stage, visual evaluation after 13 to 15 d
Method in brief: as §1

[10] = tested on: rice (Oryza sativa); assay: Test B flooded paddy test, rice; conditions: Flood, 250 g ai/ha, applied to paddy water, 2-leaf stage, visual evaluation after 13 to 15 d
Method in brief: as §1

[11] = tested on: kochia (Kochia scoparia); assay: Test A preemergence, kochia; conditions: 0 to 100 scale, 0 is no effect, 100 is complete control
Method in brief: as §2

[12] = tested on: galium (catchweed bedstraw, Galium aparine); assay: Test A postemergence, galium; conditions: 0 to 100 scale, 0 no effect, 100 complete control
Method in brief: as §2

[13] = tested on: blackgrass (Alopecurus myosuroides); assay: Test A postemergence, blackgrass; conditions: 0 to 100 scale, 0 no effect, 100 complete control
Method in brief: as §2

[14] = tested on: ryegrass, Italian (Lolium multiflorum); assay: Test A postemergence, Italian ryegrass; conditions: 0 to 100 scale, 0 no effect, 100 complete control
Method in brief: as §2

[15] = tested on: foxtail, giant (Setaria faberii); assay: Test A postemergence, giant foxtail; conditions: 0 to 100 scale, 0 no effect, 100 complete control
Method in brief: as §2

[16] = tested on: ryegrass, Italian (Lolium multiflorum); assay: Test A preemergence, Italian ryegrass; conditions: 0 to 100 scale, 0 is no effect, 100 is complete control
Method in brief: as §2

[17] = tested on: kochia (Kochia scoparia); assay: Test A postemergence, kochia; conditions: 0 to 100 scale, 0 no effect, 100 complete control
Method in brief: as §2

[18] = tested on: foxtail, giant (Setaria faberii); assay: Test A preemergence, giant foxtail; conditions: 0 to 100 scale, 0 is no effect, 100 is complete control
Method in brief: as §2

[19] = tested on: wheat (Triticum aestivum); assay: Test A postemergence, wheat; conditions: 0 to 100 scale, 0 no effect, 100 complete control
Method in brief: as §2

[20] = tested on: corn (Zea mays); assay: Test A postemergence, corn; conditions: 0 to 100 scale, 0 no effect, 100 complete control
Method in brief: as §2

Compound	Plant response rating, Sedge, Umbrella (0 to 100 scale, 0 is no effect, 100 is complete control) [1]	Plant response rating, Ducksalad (0 to 100 scale, 0 is no effect, 100 is complete control) [2]	Pigweed plant response rating ([3]; 125 g ai/ha)	Pigweed plant response rating ([3]; 500 g ai/ha)	Plant response rating, Ragweed ([4]; 125 g ai/ha)	Plant response rating, Ragweed ([4]; 500 g ai/ha)	Plant response rating, Barnyardgrass ([5]; 125 g ai/ha)	Plant response rating, Barnyardgrass ([5]; 500 g ai/ha)	Barnyardgrass plant response rating ([6]; 125 g ai/ha)	Barnyardgrass plant response rating ([6]; 500 g ai/ha)	Ragweed plant response rating ([7]; 125 g ai/ha)	Ragweed plant response rating ([7]; 500 g ai/ha)	Plant response rating, Pigweed ([8]; 125 g ai/ha)	Plant response rating, Pigweed ([8]; 500 g ai/ha)	Plant response rating, Barnyardgrass (0 to 100 scale, 0 is no effect, 100 is complete control) [9]	Plant response rating, Rice (0 to 100 scale, 0 is no effect, 100 is complete control) [10]	Kochia plant response rating ([11]; 125 g ai/ha)	Kochia plant response rating ([11]; 500 g ai/ha)	Plant response rating, Galium ([12]; 125 g ai/ha)	Plant response rating, Galium ([12]; 500 g ai/ha)	further results
CC(Nc1nc(N)c(C(F)(F)F)c(C(F)(F)F)n1)c1cc2ccccc2o1 (racemic) [Compound 58]	0	0	0	0	0	20	0	50	0	0	0	0	20	60	0	0	0	0	0	20	Plant response rating, Blackgrass ([13]; 125 g ai/ha): 0; Plant response rating, Blackgrass ([13]; 500 g ai/ha): 0; Plant response rating, Ryegrass, Italian ([14]; 125 g ai/ha): 0; Plant response rating, Ryegrass, Italian ([14]; 500 g ai/ha): 0; Plant response rating, Foxtail, Giant ([15]; 125 g ai/ha): 0; Plant response rating, Foxtail, Giant ([15]; 500 g ai/ha): 10; Ryegrass, Italian plant response rating ([16]; 125 g ai/ha): 0; Ryegrass, Italian plant response rating ([16]; 500 g ai/ha): 0; Plant response rating, Kochia ([17]; 125 g ai/ha): 30; Plant response rating, Kochia ([17]; 500 g ai/ha): 80; Foxtail, Giant plant response rating ([18]; 125 g ai/ha): 0; Foxtail, Giant plant response rating ([18]; 500 g ai/ha): 0; Plant response rating, Wheat ([19]; 125 g ai/ha): 0; Plant response rating, Wheat ([19]; 500 g ai/ha): 0; Plant response rating, Corn ([20]; 125 g ai/ha): 0; Plant response rating, Corn ([20]; 500 g ai/ha): 0
CC(Nc1nc(N)c(C(F)(F)F)c(C(F)(F)F)n1)C1Cc2ccccc2C1 (racemic) [Compound 69]	0	0	0	70	0	0	0	0	0	0	0	70	20	80	0	0	0	70	0	0	Plant response rating, Blackgrass ([13]; 125 g ai/ha): 0; Plant response rating, Blackgrass ([13]; 500 g ai/ha): 30; Plant response rating, Ryegrass, Italian ([14]; 125 g ai/ha): 0; Plant response rating, Ryegrass, Italian ([14]; 500 g ai/ha): 0; Plant response rating, Foxtail, Giant ([15]; 125 g ai/ha): 0; Plant response rating, Foxtail, Giant ([15]; 500 g ai/ha): 0; Ryegrass, Italian plant response rating ([16]; 125 g ai/ha): 0; Ryegrass, Italian plant response rating ([16]; 500 g ai/ha): 0; Plant response rating, Kochia ([17]; 125 g ai/ha): 30; Plant response rating, Kochia ([17]; 500 g ai/ha): 80; Foxtail, Giant plant response rating ([18]; 125 g ai/ha): 0; Foxtail, Giant plant response rating ([18]; 500 g ai/ha): 0; Plant response rating, Wheat ([19]; 125 g ai/ha): 0; Plant response rating, Wheat ([19]; 500 g ai/ha): 0; Plant response rating, Corn ([20]; 125 g ai/ha): 20; Plant response rating, Corn ([20]; 500 g ai/ha): 0
CC(Nc1ncc(C(F)(F)F)c(N)n1)c1cc2ccc(Cl)cc2s1 (racemic) [Compound 70]	0	0	30	90	0	50	20	70	0	30	20	90	100	100	0	0	0	40	0	80	Plant response rating, Blackgrass ([13]; 125 g ai/ha): 0; Plant response rating, Blackgrass ([13]; 500 g ai/ha): 30; Plant response rating, Ryegrass, Italian ([14]; 125 g ai/ha): 0; Plant response rating, Ryegrass, Italian ([14]; 500 g ai/ha): 0; Plant response rating, Foxtail, Giant ([15]; 125 g ai/ha): 0; Plant response rating, Foxtail, Giant ([15]; 500 g ai/ha): 60; Ryegrass, Italian plant response rating ([16]; 125 g ai/ha): 0; Ryegrass, Italian plant response rating ([16]; 500 g ai/ha): 0; Plant response rating, Kochia ([17]; 125 g ai/ha): 50; Plant response rating, Kochia ([17]; 500 g ai/ha): 80; Foxtail, Giant plant response rating ([18]; 125 g ai/ha): 0; Foxtail, Giant plant response rating ([18]; 500 g ai/ha): 50; Plant response rating, Wheat ([19]; 125 g ai/ha): 0; Plant response rating, Wheat ([19]; 500 g ai/ha): 0; Plant response rating, Corn ([20]; 125 g ai/ha): 0; Plant response rating, Corn ([20]; 500 g ai/ha): 0
CC(Nc1ncc(C(F)(F)F)c(N)n1)c1coc2cc(Cl)ccc12 (racemic) [Compound 77]	0	0	40	90	20	90	0	0	0	0	80	90	70	100	0	0	50	60	50	80	Plant response rating, Blackgrass ([13]; 125 g ai/ha): 0; Plant response rating, Blackgrass ([13]; 500 g ai/ha): 0; Plant response rating, Ryegrass, Italian ([14]; 125 g ai/ha): 0; Plant response rating, Ryegrass, Italian ([14]; 500 g ai/ha): 40; Plant response rating, Foxtail, Giant ([15]; 125 g ai/ha): 0; Plant response rating, Foxtail, Giant ([15]; 500 g ai/ha): 20; Ryegrass, Italian plant response rating ([16]; 125 g ai/ha): 20; Ryegrass, Italian plant response rating ([16]; 500 g ai/ha): 30; Plant response rating, Kochia ([17]; 125 g ai/ha): 30; Plant response rating, Kochia ([17]; 500 g ai/ha): 90; Foxtail, Giant plant response rating ([18]; 125 g ai/ha): 20; Foxtail, Giant plant response rating ([18]; 500 g ai/ha): 40; Plant response rating, Wheat ([19]; 125 g ai/ha): 20; Plant response rating, Wheat ([19]; 500 g ai/ha): 30; Plant response rating, Corn ([20]; 125 g ai/ha): 0; Plant response rating, Corn ([20]; 500 g ai/ha): 20
